Data as given in PubChem BioAssay (NCI).
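Where inhibition never reached the appropriate level, the endpoint shown equals the highest concentration tested. Otherwise, values were interpolated linearly from a five-concentration, 48-hour dose response in 96-well plates. Definition used: TGI = concentration required for complete inhibition of growth.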

Columns and labels:
Assay in all cases: NCI-60 cell line screen, 48 h
BT-549 breast = test system: BT-549 breast
ACHN renal = test system: ACHN renal
A498 renal = test system: A498 renal
A549 NSCLC = test system: A549 NSCLC
HCT-116 colon = test system: HCT-116 colon
NCI-H522 lung = test system: NCI-H522 lung
SF-295 CNS = test system: SF-295 CNS
CCRF-CEM leukemia = test system: CCRF-CEM leukemia
COLO 205 colon = test system: COLO 205 colon
SNB-19 CNS = test system: SNB-19 CNS
SR leukemia = test system: SR leukemia
MCF7 breast = test system: MCF7 breast

Structure (SMILES): O=C(CC(=O)c1ccncc1)c1ccccc1
- TGI (BT-549 breast): > 100 µM
- TGI (ACHN renal): > 100 µM
- TGI (A498 renal): > 100 µM
- TGI (A549 NSCLC): > 100 µM
- TGI (HCT-116 colon): > 100 µM
- TGI (NCI-H522 lung): > 100 µM
- TGI (SF-295 CNS): > 100 µM
- TGI (CCRF-CEM leukemia): > 41.8 µM
- TGI (COLO 205 colon): > 100 µM
- TGI (SNB-19 CNS): > 100 µM
- TGI (SR leukemia): > 100 µM
- TGI (MCF7 breast): > 100 µM

Structure (SMILES): C=C1CC(OC(C)=O)/C=C(/C)CCC(C(C)(C)O)CC1O (stereo not given)
- TGI (BT-549 breast): > 100 µM
- TGI (ACHN renal): > 100 µM
- TGI (A498 renal): > 100 µM
- TGI (A549 NSCLC): > 100 µM
- TGI (HCT-116 colon): > 100 µM
- TGI (NCI-H522 lung): > 100 µM
- TGI (SF-295 CNS): > 100 µM
- TGI (CCRF-CEM leukemia): > 100 µM
- TGI (COLO 205 colon): > 100 µM
- TGI (SNB-19 CNS): > 100 µM
- TGI (SR leukemia): > 100 µM
- TGI (MCF7 breast): > 100 µM

Structure (SMILES): CCOC(=O)C(SCCO)C(C(=O)OCC)n1ccc(N)nc1=O (stereo not given)
- TGI (BT-549 breast): > 100 µM
- TGI (ACHN renal): > 100 µM
- TGI (A498 renal): > 100 µM
- TGI (A549 NSCLC): > 100 µM
- TGI (HCT-116 colon): > 100 µM
- TGI (NCI-H522 lung): > 100 µM
- TGI (SF-295 CNS): > 100 µM
- TGI (CCRF-CEM leukemia): > 100 µM
- TGI (COLO 205 colon): > 100 µM
- TGI (SNB-19 CNS): > 100 µM
- TGI (SR leukemia): > 100 µM
- TGI (MCF7 breast): > 100 µM

Structure (SMILES): N#CS/C(C(Cl)=C(Cl)Cl)=C(/Cl)[N+](=O)[O-]
- TGI (BT-549 breast): 4.92 µM
- TGI (ACHN renal): 3.1 µM
- TGI (A498 renal): 38.2 µM
- TGI (A549 NSCLC): 53.8 µM
- TGI (HCT-116 colon): 3 µM
- TGI (NCI-H522 lung): 2.13 µM
- TGI (SF-295 CNS): 45.4 µM
- TGI (CCRF-CEM leukemia): 1.18 µM
- TGI (COLO 205 colon): 3.66 µM
- TGI (SNB-19 CNS): 49.4 µM
- TGI (SR leukemia): 2.15 µM
- TGI (MCF7 breast): 29.3 µM

Structure (SMILES): CCCCCCCCCc1cc(O)c(O)cc1CCCCCCCCC
- TGI (BT-549 breast): > 10 µM
- TGI (ACHN renal): > 10 µM
- TGI (A498 renal): > 10 µM
- TGI (A549 NSCLC): > 10 µM
- TGI (HCT-116 colon): > 10 µM
- TGI (NCI-H522 lung): > 10 µM
- TGI (SF-295 CNS): > 10 µM
- TGI (CCRF-CEM leukemia): > 10 µM
- TGI (COLO 205 colon): > 10 µM
- TGI (SNB-19 CNS): > 10 µM
- TGI (SR leukemia): > 10 µM
- TGI (MCF7 breast): > 10 µM
